# Experimental data as given in ChEMBL document CHEMBL1136619, “Synthesis of a new family of glycolipidic nitrones as potential antioxidant drugs for neurodegenerative disorders” (Bioorg Med Chem Lett, 2003).
# Tested on: neuronal
# Assay: Cytotoxic activity in cultured neuronal cells determined using MTT viability assay
# Format: functional, cell-based
compound,measurement,value
CCCCCCCCCCCCSCC(C)(C)/[N+]([O-])=C/c1ccc(CNC(=O)[C@H](O)[C@@H](O)[C@H](O[C@@H]2O[C@@H](CO)[C@H](O)[C@H](O)[C@@H]2O)[C@H](O)CO)cc1,Concentration,400 µM
